Assay results taken from patent US12023345B2, “Compositions and methods for treating lysosomal disorders” (RUSH UNIVERSITY MEDICAL CENTER, priority 2014, dated 2024).

How the values were obtained:
Format in all cases: cell-based
PPARα = molecular target: T1, PPARα (Mus musculus, UniProt P23204); test: Electrophoretic mobility shift assay of DNA-binding activity of PPARα; details: astrocytes, 5 μM aspirin, different min intervals
T1 construct: endogenous in cells; host or cells: primary mouse astrocytes (nuclear extracts)
T1 sequence (P23204 1-468): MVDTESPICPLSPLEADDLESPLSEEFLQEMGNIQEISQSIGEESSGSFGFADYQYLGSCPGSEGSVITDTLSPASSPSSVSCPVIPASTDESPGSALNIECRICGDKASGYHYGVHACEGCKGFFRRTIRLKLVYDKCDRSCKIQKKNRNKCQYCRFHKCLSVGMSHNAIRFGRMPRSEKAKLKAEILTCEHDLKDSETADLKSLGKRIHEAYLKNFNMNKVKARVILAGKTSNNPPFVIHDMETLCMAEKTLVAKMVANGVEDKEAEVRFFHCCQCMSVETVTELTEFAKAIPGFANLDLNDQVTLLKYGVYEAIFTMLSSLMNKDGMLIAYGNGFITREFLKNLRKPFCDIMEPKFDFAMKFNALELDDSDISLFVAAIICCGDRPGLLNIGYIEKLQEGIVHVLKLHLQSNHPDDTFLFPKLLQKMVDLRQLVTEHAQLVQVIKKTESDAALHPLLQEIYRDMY
T1 sequence (P28700 1-467 partner): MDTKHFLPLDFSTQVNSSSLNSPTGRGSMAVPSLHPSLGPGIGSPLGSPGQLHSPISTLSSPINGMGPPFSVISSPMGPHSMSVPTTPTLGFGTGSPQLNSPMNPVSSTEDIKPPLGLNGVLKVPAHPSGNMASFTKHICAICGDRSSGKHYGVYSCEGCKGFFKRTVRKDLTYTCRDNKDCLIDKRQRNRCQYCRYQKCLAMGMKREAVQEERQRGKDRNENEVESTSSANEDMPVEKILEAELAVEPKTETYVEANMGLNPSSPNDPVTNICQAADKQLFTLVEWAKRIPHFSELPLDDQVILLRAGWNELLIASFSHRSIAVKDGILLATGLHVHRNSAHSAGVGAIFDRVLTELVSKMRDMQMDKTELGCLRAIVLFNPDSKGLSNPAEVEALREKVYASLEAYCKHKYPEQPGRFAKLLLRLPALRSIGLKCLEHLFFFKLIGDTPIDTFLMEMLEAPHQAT
Experimental: FIG. 14(A)-(B) illustrates activation of PPARα by aspirin in primary mouse astrocytes. 14(A) Cells were treated with 5 μM aspirin for different min intervals followed by isolation of nuclear extracts and electrophoretic mobility shift assay for monitoring DNA-binding activity of PPARα using PPARα-binding site of the Tfeb promoter as a probe. 14(B) Astrocytes isolated from wild type, PPARα (−/−) and PPARβ (−/−) mice were transfected with PPAR luciferase reporter (PPRE-x3-TK-luc) plasmid and after 24 h of transfection, cells were stimulated with different doses of aspirin. After 4 h, firefly luciferase activity was measured in total cell extracts. Results are mean +SD of three different experiments. ^ap<0.001 vs control.

Tfeb [1] = test: TFEB mRNA by semi-quantitative RT-PCR in mouse primary astrocytes; details: different concentrations, 5 hr, serum-free
Experimental: Semi-Quantitative Reverse Transcriptase-Coupled Polymerase Chain Reaction (RT-PCR): Total RNA was isolated from mouse primary astrocytes and human primary astrocytes using RNA-Easy Qiagen (Valencia, CA) kit following manufactures protocol. Semi-quantitative RTPCR was carried out as described earlier (28) using oligo (dT) 12-18 as primer and moloney murine leukemia virus reverse transcriptase (MMLV-RT, Invitrogen) in a 20 μl reaction mixture. The resulting cDNA was appropriately amplified using Promega Master Mix (Madison, WI) and the following primers (Invitrogen) for murine genes: […]
Amplified products were electrophoresed on 2% agarose (Invitrogen) gels and visualized by ethidium bromide (Invitrogen) staining. Glyceraldehyde-3-phosphate dehydrogenase (Gapdh) mRNA was used as a loading control to ascertain that an equivalent amount of cDNA was synthesized from each sample.
Mouse primary astrocytes were incubated with different concentrations (see FIG. 9) of simvastatin and pravastatin (A), (B), cinnamic acid (C), and sodium phenylbutyrate and sodium benzoate (D) for 5 hr. under serum-free condition followed by monitoring the mRNA expression of TFEB by semi-quantitative RT-PCR. Sodium formate (D) was used as a negative control for sodium phenylbutyrate and sodium benzoate.

Tfeb [2] = test: TFEB immunocytochemistry in mouse primary astrocytes and neurons; details: 5 μM aspirin, 12 h
Experimental: Isolation of Primary Mouse Astroglia: Astroglia were isolated from mixed glial cultures as described (24, 25) according to the procedure of Giulian and Baker (26). Briefly, on day 9, the mixed glial cultures were washed three times with Dulbecco's modified Eagle's medium/F-12 and subjected to shaking at 240 rpm for 2 h at 37° C. on a rotary shaker to remove microglia. After 2 days, the shaking was repeated for 24 h for the removal of oligodendroglia and to ensure the complete removal of all nonastroglial cells. The attached cells were seeded onto new plates for further studies.
Isolation of Primary Mouse Neurons: Fetal (E18-E16) mouse neurons were prepared as previously described (27) with modifications. Whole brains were removed and the cells were washed by centrifugation three times at 1200 rpm for 10 min, the pellet dissociated and the cells plated at 10% confluence in 8-well chamber slides pre-treated for >2 hr with Poly-D-Lysine (Sigma, St. Louis, MO). After 4 min, the non-adherent cell suspension was aspirated and […] complete Neurobasal media (Invitrogen) supplemented with 2% B27 was added to each well. The cells were incubated for 4 days prior to experimentation. […] The cells were stimulated with gemfibrozil in Neurobasal media supplemented with 2% B27 minus antioxidants (Invitrogen) for 24 hr prior to methanol fixation and immunostaining.
Immunostaining of Cells: Immunocytochemistry was performed as described earlier (29). Briefly, 8 well chamber slides containing mouse primary astrocytes, mouse neurons were cultured to 70-80% confluence were fixed with chilled Methanol (Fisher Scientific, Waltham, MA) overnight, followed by two brief rinses with filtered PBS. […] The samples were run in an EtOH and Xylene (Fisher) gradient, mounted, and observed under Olympus BX41 fluorescence microscope.

Q: What does the source list for `CC(=O)Oc1ccccc1C(=O)O` [aspirin]?
A: DNA-binding activity of PPARα (EMSA) (PPARα): time-dependent increase in PPARα activation; TFEB mRNA expression (semi-quantitative RT-PCR) (Tfeb [1]): upregulation of TFEB mRNA expression; TFEB expression (immunofluorescence) (Tfeb [2]; PPARα (−/−) astrocytes): not PPARα (−/−); TFEB expression (immunofluorescence) (Tfeb [2]; PPARβ (−/−) astrocytes): induced the expression of TFEB; TFEB expression (immunofluorescence) (Tfeb [2]; WT astrocytes): induced the expression of TFEB
